Data set [1] is described as follows: HPLC radiochemical purity (RCP) stability of ^99mTc radiolabeled somatostatin peptides. Type of data set: physicochemical. The procedure:
Lyophilized kit “placebo” vials were prepared containing 5 mg sodium glucoheptonate dihydrate, 100 μg edetate disodium dihydrate, and either 50 μg (^99mTc placebo) or 1000 μg (^188Re placebo) stannous chloride dihydrate. The formulations were adjusted to pH 7.4 prior to lyophilization.
(§1) For the ^99mTc radiolabeling, a peptide as the TFA salt was dissolved in saline at 1 mg/mL and 100 μg (100 μL) was added to a ^99mTc placebo vial. The vial was reconstituted with 0.9 mL technetium ^99mTc sodium pertechnetate containing approximately 20 mCi and saline such that the final preparation volume was 1.1 mL. The vial was heated in a boiling water bath for 10 minutes and cooled at room temperature for 10 minutes.
(§2) The radiochemical purity (RCP) of the ^99mTc or ^188Re peptides was measured by gradient reversed phase HPLC using a Eurosphere-100 C18 HPLC column and 0.1% TFA mobile phases moderated with acetonitrile. Radioactive components were detected in the HPLC system using an in-line radiometric detector. Under the gradient conditions employed radiolabeled impurities (for example: ^99mTc glucoheptonate, ^99mTc edetate, and ^99mTc pertechnetate) eluted early (between 1 and 4 minutes), while the radiolabeled peptides eluted much later (between 8 and 20 minutes). In general, two isomeric radiometal complexes were observed, and the HPLC RCP was measured as the sum of the percent areas of the peaks corresponding to the two complexes. Radiochemical purity results for each of compounds are summarized in the examples that follow.
Somatostatin peptides were prepared with varying sidechains in the chelator portion of the compounds as described in FIG. 2. The sidechains varied in length from 0 to 5 atoms. These peptides have an amine-diamide-thiol chelator of the (β)Dap-N^2-Cys type (N^2=any amino acid). Each of the peptides were radiolabeled and monitored for HPLC stability out to 9 hours according the procedures described in Example 3.
Analogs to a commercial lung cancer imaging radiopharmaceutical (NeoTect®) were prepared to investigate the influence of the stabilizing sidechain (D)-CH2CH2CH2NH2 as described in FIG. 3. These peptides have an amine-diamide-thiol chelator of the (β)Dap-N^2-Cys type (N^2=any amino acid). The compound with N^2=Lys (sidechain=(L)-CH2CH2—CH2CH2NH2) is the peptide in the commercial radiopharmaceutical product. Each of the peptides were radiolabeled and monitored for HPLC stability out to 18 hours according to the procedures described in Example 3.

Data set [2] can be described thus: Cysteine challenge stability of ^99mTc chelator peptides. The format is physicochemical. Here is the method:
as §1, §2
To ^99mTc radiolabelled peptide preparations described in Example 3 was added 150 μg of cysteine (approximately a 7-fold molar excess over peptide), and the preparations were stored at room temperature and monitored by HPLC for up to 12 hours. The amount of ^99mTc cysteine formed over time was noted. The initial HPLC analysis was started within 5 minutes of adding cysteine. In all cysteine challenge studies, a chelator compound containing a stabilizing sidechain was screened vs. the corresponding control chelator compound containing no sidechain. The relative amount of ^99mTc cysteine formed over time correlates inversely with the stability of the chelator (ie. less ^99mTc cysteine indicates higher chelator stability).
Several model chelator peptides were prepared with an N^1—N^2-Cys (N^1, N^2=independently any amino acid) amino acid sequence capable of complexing technetium as a triamide thiol chelator. Various stabilizing sidechains were substituted into the N^1—N^2-Cys chelator in two positions R1 and R2 as depicted in FIG. 4. The compounds were screened in the cysteine challenge experiment described in Example 4. Several experiments were conducted where 1-2 chelators were compared directly to a control chelator containing no stabilizing sidechain (compound GoC1 was also analyzed alone in a further study). Results in Table 5 represent % Peptide complexed to ^99mTc (ie. 100%−the amount of ^99mTc cysteine) vs. time.
Several model chelator peptides were prepared with an (β)Dap-N^2-Cys (N^2=any amino acid) amino acid sequence capable of complexing technetium as an amine diamide thiol chelator. This chelator is the chelator in the somatostatin peptides that were evaluated in Examples 5 and 6. Various stabilizing sidechains were substituted into the (β)Dap-N^2-Cys chelator in two positions R3 and R4 as depicted in FIG. 5. The compounds were screened in the cysteine challenge experiment described in Example 4. Several experiments were conducted where 1-2 chelators were compared directly to a control chelator containing no stabilizing sidechain. Results in Table 6 are the same as described in Example 7.
Two model chelator peptides were prepared with a ma-N^1—N^2 (Ma=mercaptoacetyl; N^1, N^2=independently any amino acid) amino acid sequence capable of complexing technetium as a triamide thiol chelator. This chelator has the thiol donor group at the N-terminus of the peptide. A stabilizing sidechain was substituted into the ma-N^1—N^2 chelator in position R5 as depicted in FIG. 6. The compounds were radiolabeled according to Example 3 with the exception that additional NaOH was added to bring the pH of the preparation up to pH 8.5. […]

The mark [3] stands for this setting: ^99mTc labeled somatostatin peptide, (β)Dap-N2-Cys chelator, sum of percent areas of the two complex peaks.
Where [4] appears, read: ^99mTc labeled somatostatin peptide, (β)Dap-N2-Cys chelator.
The mark [5] stands for this setting: N1-N2-Cys triamide thiol chelators, 150 μg cysteine, room temperature, Initial (within 5 minutes).
Where [6] appears, read: N1-N2-Cys triamide thiol chelators, cysteine challenge.
Where [7] appears, read: Ma-N1-N2 triamide thiol chelators, preparation pH 8.5, cysteine challenge.

* marks the point of attachment. Mercaptoacetyl = O=C(CS)*; Bz = O=C(c1ccccc1)*

Consider “cyclo-[(N-Me)Phe-Tyr-(D)Trp-Lys-Val-Hcy]-CH2CO.(β)Dap-Gly-Cys-Lys-NH2 [-(β)Dap-Gly-Cys-Lys-NH2]”, for which, in data set [1] (^99mTc labeled NeoTect analogs), the “HPLC RCP 0.5 hours” value was determined as 92.3%, the “HPLC RCP 3 hours” value is given as 84.9%, the “HPLC RCP 6 hours” value was 85.6% and the “HPLC RCP 9 hours” value is 81.3%. Besides, in data set [1] (^99mTc labeled NeoTect analogs), the “HPLC RCP 18 hrs.” value was determined as 76.0%.

Regarding “cyclo-[(N-Me)Phe-Tyr-(D)Trp-Lys-Val-Hcy]-CH2CO.(β)Dap-Lys-Cys-Lys-NH2 [-(β)Dap-Lys-Cys-Lys-NH2, reference compound]”, in data set [1] (^99mTc labeled NeoTect analogs), the “HPLC RCP 0.5 hours” value was 93.9%, the “HPLC RCP 3 hours” value is 91.0%, the “HPLC RCP 6 hours” value was 85.2% and the “HPLC RCP 9 hours” value is reported as 81.8%. In addition, in data set [1] (^99mTc labeled NeoTect analogs), the “HPLC RCP 18 hrs.” value is on record as 75.7%.

Turning to “cyclo-[Tyr-(D)Trp-Lys-Thr-Phe-(N-Me)Hcy]-CH2CO.(β)Dap-Dab-Cys-Thr-Ser [—CH2CH2NH2]”, the “HPLC RCP 0.5 hours” value in data set [1] (setting [3]) was determined as 94.3%. In data set [1] (setting [4]), the “HPLC RCP 3 hours” value is recorded as 91.6%, the “HPLC RCP 6 hours” value turned out to be 90.7% and the “HPLC RCP 9 hours” value is reported as 89.2%.

On to “cyclo-[Tyr-(D)Trp-Lys-Thr-Phe-(N-Me)Hcy]-CH2CO.(β)Dap-Met-Cys-Thr-Ser [—CH2CH2SCH3]”, for which, in data set [1] (setting [3]), the “HPLC RCP 0.5 hours” value amounted to 95.0%. Besides, in data set [1] (setting [4]), the “HPLC RCP 3 hours” value is 93.7%, the “HPLC RCP 6 hours” value is 92.5% and the “HPLC RCP 9 hours” value stood at 92.3%.

On to “cyclo-[(N-Me)Phe-Tyr-(D)Trp-Lys-Val-Hcy]-CH2CO.(β)Dap-(D)Orn-Cys-Lys-NH2 [-(β)Dap-(D)Orn-Cys-Lys-NH2]”, for which, in data set [1] (^99mTc labeled NeoTect analogs), the “HPLC RCP 0.5 hours” value is on record as 96.8%, the “HPLC RCP 3 hours” value came to 94.1%, the “HPLC RCP 6 hours” value is given as 91.3% and the “HPLC RCP 9 hours” value was 89.8%. Besides, in data set [1] (^99mTc labeled NeoTect analogs), the “HPLC RCP 18 hrs.” value was 81.9%.

On to “Bz-Gly-Gly-Met-Cys-Ala.amide (Bz-GGMCA-NH2; SMILES CSCC[C@H](NC(=O)CNC(=O)CNC(=O)c1ccccc1)C(=O)N[C@@H](CS)C(=O)N[C@@H](C)C(N)=O)”, for which, in data set [2] (setting [5]), the “% Peptide Complexed to ^99mTc Initial” value is on record as 96.9%. In addition, in data set [2] (setting [6]), the “% Peptide Complexed to ^99mTc 2 h” value came out at 92.6%, the “% Peptide Complexed to ^99mTc 4 h” value stood at 88.6%, the “% Peptide Complexed to ^99mTc 6 h” value came out at 83.7% and the “% Peptide Complexed to ^99mTc 8 h” value turned out to be 82.7%. Moreover, in data set [2] (setting [6]), the “% Peptide Complexed to ^99mTc 10 h” value worked out at 78.6% and the “% Peptide Complexed to ^99mTc 12 h” value is given as 77.2%.

Regarding “Ma-Gly-Gly-Tyr-Ala.amide (Mercaptoacetyl-GGYA-NH2; SMILES C[C@H](NC(=O)[C@H](Cc1ccc(O)cc1)NC(=O)CNC(=O)CNC(=O)CS)C(N)=O) [Ma.GG, control chelator, no stabilizing sidechain]”, in data set [2] (setting [7]), the “% Peptide Complexed to ^99mTc 2 h” value came out at 91.3%, the “% Peptide Complexed to ^99mTc 4 h” value is given as 75.7%, the “% Peptide Complexed to ^99mTc 6 h” value came to 61.2% and the “% Peptide Complexed to ^99mTc 8 h” value was determined as 48.7%. In data set [2] (setting [7]), the “% Peptide Complexed to ^99mTc 10 h” value is 42.2% and the “% Peptide Complexed to ^99mTc 12 h” value stood at 32.7%. For the same substance, the “% Peptide Complexed to ^99mTc Initial” value in data set [2] (Ma-N1-N2 triamide thiol chelators, preparation pH 8.5, cysteine challenge, Initial) came to 100%.

Take “cyclo-[Tyr-(D)Trp-Lys-Thr-Phe-(N-Me)Hcy]-CH2CO.(β)Dap-Orn-Cys-Thr-Ser [—CH2CH2CH2NH2]”: the “HPLC RCP 0.5 hours” value in data set [1] (setting [3]) was found to be 97.0%. Also, in data set [1] (setting [4]), the “HPLC RCP 3 hours” value came to 95.2%, the “HPLC RCP 6 hours” value stood at 94.9% and the “HPLC RCP 9 hours” value amounted to 94.9%.

For the substance “cyclo-[Tyr-(D)Trp-Lys-Thr-Phe-(N-Me)Hcy]-CH2CO.(β)Dap-Gly-Cys-Thr-Ser [—H]”, the “HPLC RCP 0.5 hours” value in data set [1] (setting [3]) is on record as 89.7%. Moreover, in data set [1] (setting [4]), the “HPLC RCP 3 hours” value turned out to be 84.8%, the “HPLC RCP 6 hours” value worked out at 83.7% and the “HPLC RCP 9 hours” value was determined as 80.2%.

“cyclo-[Tyr-(D)Trp-Lys-Thr-Phe-(N-Me)Hcy]-CH2CO.(β)Dap-Lys-Cys-Thr-Ser [—CH2CH2CH2CH2NH2]”: the “HPLC RCP 0.5 hours” value in data set [1] (setting [3]) stood at 83.4%. Further, in data set [1] (setting [4]), the “HPLC RCP 3 hours” value turned out to be 83.4%, the “HPLC RCP 6 hours” value worked out at 81.3% and the “HPLC RCP 9 hours” value worked out at 81.0%.

On to “cyclo-[Tyr-(D)Trp-Lys-Thr-Phe-(N-Me)Hcy]-CH2CO.(β)Dap-(α)Dap-Cys-Thr-Ser [—CH2NH2]”, for which, in data set [1] (setting [3]), the “HPLC RCP 0.5 hours” value is reported as 88.5%. Besides, in data set [1] (setting [4]), the “HPLC RCP 3 hours” value is on record as 86.6%, the “HPLC RCP 6 hours” value stood at 84.1% and the “HPLC RCP 9 hours” value was 82.6%.

Regarding “Ac-Tyr-Gly-Met-Gly-Cys-Ala.amide (Ac-YGMGCA-NH2)”, the “% Peptide Complexed to ^99mTc Initial” value in data set [2] (setting [5]) is 93.9%. In data set [2] (setting [6]), the “% Peptide Complexed to ^99mTc 2 h” value is listed as 92.4%, the “% Peptide Complexed to ^99mTc 4 h” value amounted to 89.3%, the “% Peptide Complexed to ^99mTc 6 h” value came out at 85.9% and the “% Peptide Complexed to ^99mTc 8 h” value stood at 82.0%. In addition, in data set [2] (setting [6]), the “% Peptide Complexed to ^99mTc 10 h” value was determined as 79.9% and the “% Peptide Complexed to ^99mTc 12 h” value stood at 77.2%.

These data come from patent US7481993B2, “Chelators for radioactively labeled conjugates comprising a stabilizing sidechain” (Schering AG, priority 2005, dated 2009).
